Read-outs that look alike come from different tables or passages of the source. Some results are limits rather than exact numbers.

One series deals with EB - DNA. Kind of series: Competitive binding with ethidium bromide: fluorescence quenching of EB - DNA. The following applies: quenching of EB-DNA emission, F0/F vs [complex]/[DNA], λex 450 nm. The text has this: The complexes 1 and 2 are non-emissive in nature. […] In this study, changes in the intensity of the fluorescence emission band of EB - DNA complex were monitored after the addition of metal complexes 1 and 2 (Fig. 2). Upon increasing complex concentration in the DNA-EB solution, EB emission intensity was decreased. […] The resulting data (Table 1) of the complexes 1 and 2 with EB-DNA was processed from the standard Stern-Volmer equation[38], F0/F=1+Ksvr where F0 and F are the fluorescence emission intensities in the absence and presence of quencher (i.e. complexes 1 and 2), r is the ratio of concentration of the quencher. Ksv is the Stern-Volmer quenching constant.
For fluorescence quenching experiments, nucleic acids solution was pretreated with ethidium bromide (EB) for 30 min. Solutions of cobalt(III) complexes were then added to this mixture and their effect on the emission intensity was measured. The samples were excited at 450 nm and emission was observed between 500 and 750 nm.

The test system of series [1] is monkey kidney epithelial cell Vero. Kind of series: MTT assay on Vero cells. From the text: The anti-proliferative property of the complexes 1 and 2 at different concentrations on A549 lung carcinoma cell and monkey kidney epithelial cell Vero was examined by adopting MTT assay (Fig. S7). […] The naked cobalt acetate and ligands salen and salophen were separately tested on A549 cells to understand if metal chelation is the principal basis of the anticancer activity of the complexes.
Culture: Human lung cancer cells (A549) were received from National Centre for Cell Science (NCCS) Pune, India. Vero cells were obtained from ATCC. The cells were grown at humidified atmosphere of 5% CO2 in an incubator at 37 °C (Forma, Thermo Scientific, USA) in DMEM medium (Invitrogen) containing 10% FBS (Sigma-Aldrich, St. Louis, Mo, USA), 100 μg/mL of penicillin and 100 μg/mL streptomycin were used as antibiotics (Himedia, Mumbai, India). […] The cells were seeded in 96 well plates (5000 A549 cells per well) and allowed to attach for 24 h. The cells were then incubated with different concentrations of the metal complexes 1 and 2 dissolved in 100% dimethyl sulfoxide (DMSO) (Sigma-Aldrich) and prepared to a final dilution of 0.02% of DMSO.
In the determination of IC50 value, 0.02% DMSO was used as the solvent control. After the end of incubation period (24 h), the medium was aspirated carefully and replaced with new medium. The formazan formed was dissolved in100 μL of 100% DMSO to each well. […]

Series [2] concerns CT-DNA. Kind of series: Electronic absorption titration of the complexes with CT-DNA. It counts as binding. To be noted: for intrinsic binding constant Kb: CT-DNA, plot of [DNA]/(εa−εf) vs [DNA]; for percentage of hypochromism (% H) / red shift: absorption spectra on incremental addition of CT-DNA. As to the method: The absorption spectra of the complexes 1 and 2 were measured in presence and absence of CT-DNA, and the results are shown in Fig. 2.
The value of DNA binding constant (Kb) of the complexes 1 and 2 were calculated using the equation[32], [DNA]/(εa−εf)=[DNA]/(ε0−εf)+1/Kb(ε0−εf) where [DNA] is the concentration of DNA expressed in base pairs; εa is called as apparent extinction coefficient which is determined by calculating Aobs/[complex], εf and ε0 are the apparent free and fully-bound cobalt(III) complex extinction coefficients.
The intrinsic binding constants Kb of complexes 1 and 2 were calculated from the plot of [DNA]/ (εa-εf) versus [DNA] the values are shown in Table 1. […] As both the complexes intercalated with DNA, it is expected that salicylaldehyde aromatic moiety is involved in the intercalation. […] This is due to the presence of additional aromatic phenyl ring in the salophen Schiff base ligand in complex 2 which enhanced stacking interaction between salicylaldehyde aromatic moiety and DNA bases.
Concentrated stock solution of DNA was prepared in PBS and sonicated for 25 cycles, where in each cycle consisted of 30 seconds with 1 min intervals. The DNA concentration per nucleotide was determined by electronic absorption spectroscopy using the known molar extinction coefficient value of 6600 M^−1 cm^−1 at 260 nm[79].
The stock solutions were prepared by dissolving the complexes 1 and 2 in an aqueous solution of DMSO as the co-solvent, and then diluted suitably with the corresponding buffer to the required concentrations for all the experiments. The final DMSO concentration never exceeded 0.5%. For absorption and emission spectral experiments, the DNA solutions were pre-treated with the solutions of metal complexes to ensure no change in the metal complex concentrations.
Absorption studies were performed by maintaining the constant concentration of both the complexes and varying the CT-DNA concentration. An equal amount of CT-DNA was added to the complexes and the reference solution to eliminate the absorbance of CT-DNA itself.

In series [3] the test system is CT-DNA. As to the kind of experiment: Cyclic voltammetry in the absence and presence of CT-DNA. The class given is binding. To be noted: absence of DNA, 0.5% DMSO/PBS, glassy carbon vs saturated calomel; for cathodic peak potential Epc: Co(III) to Co(II). As to the method: Electrochemical studies of complexes 1 and 2 were recorded in 0.5% DMSO/PBS buffer solution, with glassy carbon as working electrode vs saturated calomel as reference electrode and Pt wire as auxiliary electrode. […] On addition of CT-DNA to each cobalt complex solution, no new peak appeared. […] The decrease in voltammetric current in the presence of CT- DNA is possibly due to the diffusion of the complexes 1 and 2 bound to the large, slowly diffusing DNA molecule[39],[40]. The positive shifts indicate that complexes 1 and 2 bind to DNA through intercalation as observed in the spectroscopic studies[39],[40].
For cyclic voltammetry experiments, the electrode surfaces were freshly polished with alumina powder and then sonicated in ethanol and distilled water for 1 min prior to each experiment and the electrode was rinsed with doubly distilled water thoroughly between each polishing step. Finally, each electrode was cleaned thoroughly in an ultrasonic cleaner again with doubly distilled water. Cyclic voltammetric experiments were performed at room temperature in […] in a single compartment cell with a three-electrode configuration, namely, glassy carbon working electrode, platinum wire auxiliary electrode and saturated calomel as reference electrode. Before experiments, all solutions were deaerated with dry nitrogen gas for 10 min to remove dissolved oxygen and kept in nitrogen atmosphere throughout the experiments.

Regarding `CCCCCCCCCCCC[NH2+][Co-3]123([NH2+]CCCCCCCCCCCC)[O]c4ccccc4C=[N+]1CC[N+]2=Cc1ccccc1[O]3.[O-][Cl+3]([O-])([O-])[O-]` [Complex 1, trans-[Co(salen)(DA)2](ClO4)], in the series on EB - DNA, the “Stern–Volmer constant (Ksv)” value was 0.5694. Also, in series [1], the “concentration up to which no significant toxicity” value is above 150 µM. For the same molecule, in the series with CT-DNA [2], the “intrinsic binding constant Kb” value stood at 13100 M⁻¹, the “percentage of hypochromism (% H)” value was 31.54% and the red shift was 10 nm. For the same molecule, in the series with CT-DNA [3], the “cathodic peak current ipc” value is recorded as −1.184 × 10^−5 A and the “cathodic peak potential Epc” value is recorded as −0.490 V.

In the case of `CCCCCCCCCCCC[NH2+][Co-3]123([NH2+]CCCCCCCCCCCC)[O]c4ccccc4C=[N+]1c1ccccc1[N+]2=Cc1ccccc1[O]3.[O-][Cl+3]([O-])([O-])[O-]` [Complex 2, trans-[Co(salophen)(DA)2](ClO4)], the “Stern–Volmer constant (Ksv)” value in the series with EB - DNA is given as 0.6067. In addition, the “concentration up to which no significant toxicity” value in series [1] (Vero cells, MTT) was above 150 µM. In the series on CT-DNA [2], the “intrinsic binding constant Kb” value is 31500 M⁻¹, the “percentage of hypochromism (% H)” value turned out to be 36.81% and the red shift was determined as 13 nm. In the series with CT-DNA [3], the “cathodic peak current ipc” value is reported as −3.622 × 10^−6 A and the “cathodic peak potential Epc” value is −0.265 V.

The record behind these values is publication PMC6389928, “Biomolecular Interaction, Anti-Cancer and Anti-Angiogenic Properties of Cobalt(III) Schiff Base Complexes” (Scientific Reports, 2019).
